Laboratory results as given in patent US8084502B2, “Use of agmatine for protection of retinal ganglion cells” (priority 2007, dated 2011).

What was measured:
Assay type in all cases: cell-based, rat
[1] = system: ERK; test: Western blot, phospho-ERK in hypoxic RGC-5; conditions: agmatine 100 μM, BDNF 10 ng/mL
Procedure: (§1) The RGC-5 cell line, which is a RGC line developed from post-natal Sprague-Dawley rats, was grown in modified Dulbecco's Modified Eagle's Medium (DMEM; Gibco) supplemented with 10% of heat inactivated fetal bovine serum (Gibco) and 100 U/mL of penicillin and 100 μg/mL of streptomycin (Gibco). The cells were passaged every 2 to 3 days, and the cultures incubated at 37° C. in 5% of CO2 and air. […] For all experiments, cells were used at an 80% confluence. Cultures were transferred into a closed hypoxic chamber (Form a Scientific Co.) in which oxygen level (5% of O2, 5% of CO2, 90% of N2) and temperature (37° C.) were controlled. […] The protein concentrations in the resultant supernatants were measured with the Bradford reagent, and equal amounts of protein (40 μg) were boiled in Laemmli sample buffer, followed by being resolved by 10 or 15% SDS-PAGE. The proteins were transferred to polyvinylidene fluoride membranes (Immobilon; Millipore, Billerica, Mass.) and then probed overnight with antibodies against JNK, ERK p44/42, p38, NF-κB p65, phospho-JNK, phospho-ERK p44/42, phospho-p38, phospho-NF-κB, (3-actin and histone 3 as indicated (diluted 1:1000). The immunoreactive bands were detected with horseradish peroxidase-conjugated secondary antibodies and visualized by enhanced chemiluminescence.

[2] = system: JNK; test: Western blot, phospho-JNK in hypoxic RGC-5; conditions: agmatine 100 μM, BDNF 10 ng/mL
Procedure: as §1

[3] = system: Total MAPKs (JNK, ERK, and p38); test: Western blot, total MAPKs in hypoxic RGC-5
Procedure: as §1

[4] = system: RGC-5; test: Hoechst 33342 and PI staining after hypoxia; conditions: hypoxia 48 hours; 100 μM of agmatine or 10 ng/mL of BDNF
Procedure: The RGC-5 cell line, which is a RGC line developed from post-natal Sprague-Dawley rats, was grown in modified Dulbecco's Modified Eagle's Medium (DMEM; Gibco) supplemented with 10% of heat inactivated fetal bovine serum (Gibco) and 100 U/mL of penicillin and 100 μg/mL of streptomycin (Gibco). The cells were passaged every 2 to 3 days, and the cultures incubated at 37° C. in 5% of CO2 and air. […] For all experiments, cells were used at an 80% confluence. Cultures were transferred into a closed hypoxic chamber (Form a Scientific Co.) in which oxygen level (5% of O2, 5% of CO2, 90% of N2) and temperature (37° C.) were controlled. After washing twice with deoxygenated serum-free DMEM, cells were maintained in the hypoxic chamber. Control cells were not exposed to hypoxia. Agmatine or BDNF were added to the culture medium at the start of injury as indicated. Apoptotic or necrotic cell death was characterized by the use of Hoechst 33342 and PI double staining. Cells were stained with 10 μg/mL of Hoechst 33342 and 10 μg/mL of PI at 37° C. for 30 minutes. After washing twice with phosphate buffered saline (PBS), cells were imaged with a digital camera attached to a fluorescence microscope.

[5] = system: p38; test: Western blot, phospho-p38 in hypoxic RGC-5; conditions: agmatine 100 μM, BDNF 10 ng/mL
Procedure: as §1

[6] = system: RGC-5; test: LDH assay, hypoxia-induced cell death; conditions: for LDH release: relative to maximum LDH release = 100; for concentration at which cell death was reduced significantly (LDH assay): preliminary studies
Procedure: The RGC-5 cell line, which is a RGC line developed from post-natal Sprague-Dawley rats, was grown in modified Dulbecco's Modified Eagle's Medium (DMEM; Gibco) supplemented with 10% of heat inactivated fetal bovine serum (Gibco) and 100 U/mL of penicillin and 100 μg/mL of streptomycin (Gibco). The cells were passaged every 2 to 3 days, and the cultures incubated at 37° C. in 5% of CO2 and air. […] For all experiments, cells were used at an 80% confluence.
Cultures were transferred into a closed hypoxic chamber (Form a Scientific Co.) in which oxygen level (5% of O2, 5% of CO2, 90% of N2) and temperature (37° C.) were controlled. After washing twice with deoxygenated serum-free DMEM, cells were maintained in the hypoxic chamber. Control cells were not exposed to hypoxia. Agmatine or BDNF were added to the culture medium at the start of injury as indicated.
Cell viability was quantified by measurement of LDH released by injured cells after hypoxic or normoxic culture for 12, 24, and 48 hours. LDH release is expressed as a value relative to the value of 100, which represents the maximum LDH release that occurred after freezing of each culture at −70° C. overnight and rapid thawing, which induces nearly complete cell damage. All experiments were performed in at least quadruplicate and repeated at least eight times using cell cultures derived from different platings. The preliminary studies with the LDH assay tested agmatine concentrations from 10 μM to 1 mM and BDNF concentrations from 5 ng/mL to 100 ng/mL.

Row | Compound | expression of phospho-ERKs [1] | hypoxia-induced expression of phospho-JNKs [2] | Total MAPKs (JNK, ERK, and p38) and β-actin [3] | RGC loss (Hoechst-positive / PI-positive cells) [4] | expression of phospho-p38 [5] | suppression of LDH release compared with BDNF ([6]; hypoxia 48 hours, 100 μM of agmatine vs 10 ng/mL BDNF, P<0.001) | LDH release ([6]; hypoxia 48 hours, 100 μM of agmatine) | LDH release ([6]; hypoxia 48 hours, 500 μM of agmatine) | concentration at which cell death was reduced significantly (LDH assay) ([6]; tested 10 μM to 1 mM) | LDH release ([6]; hypoxia 48 hours, 10 ng/mL of BDNF) | LDH release ([6]; hypoxia 48 hours, 50 ng/mL of BDNF) | LDH release ([6]; hypoxia 48 hours, 100 ng/mL of BDNF) | concentration at which cell death was reduced significantly (LDH assay) ([6]; tested 5 ng/mL to 100 ng/mL)
1 | N=C(N)NCCCCN [agmatine] | did not significantly affect | significantly suppressed | no significant changes | RGC loss was prevented | had no effect | more effective in suppressing LDH release than 10 ng/mL BDNF | 25.60% | 27.09% | ≥ 100 µM | – | – | – | –
2 | BDNF: recombinant human BDNF (R&D System), well-known protective neurotrophin for RGCs, used as comparator | completely blocked the expression of phospho-ERKs after exposure to hypoxia for 3 and 6 hours, but had no effect thereafter | not | no significant changes | RGC loss was prevented | only blocked the expression of phospho-p38 at 6 hours | – | – | – | – | 30.10% | 33.67% | 36.06% | ≥ 10 ng/mL
